From patent US10471054B2, “CDK1 inhibitors of acetyl chrysin mannich base derivatives, synthesis and use thereof” (priority 2016, dated 2019)

Assays:
[1] = test system: 5 cancers cells (MCF-7, H-460, BGC-823, PC-3, Hep G2); test: Anti-cancer cells proliferation activity, average of 5 cancer cells; assay type: cell-based; settings: for IC50: average of 5 cancer cells
Text: (§1) Anti-cancer cells proliferationactivity of in vitro CH-j and CH-f were shown in TABLE 2 for the results of the screening of 5 cancers cells.

[2] = Pharmacokinetics by oral in monkey (urine drug concentration-time curve); assay type: in vivo; settings: rhesus, monkey (n = 6), 3 mg/kg
BGC-823 and Hep G2 = test: H2O2 level in cancer cells, PF1-H2O2 fluorescent probe; assay type: cell-based; settings: BGC-823 and Hep G2, CH-j 5-10 μM
Experimental: The cells are cancer cells (MCF-7, GBC-823, Hep G2) and normal cells (Liver, COS-7, PBMCs). According to the literature [Scientific Reports, 2015, 5: 13626; Anti-cancer Agents in Medicinal Chemistry, 2016, 16: 914-924.], in vitro cultured cells was given to CH-j 25 μM for 3.5 h, added PF1-H2O2 selective fluorescence probe 10 μM for 0.5 h and detected the concentration of H2O2 in cells, and performed fluorescence imaging by results shown in FIG. 1.
FIG. 1-2: The effect of CH-j/BA-j to Hep G2 and BGC-382 in the levels of H2O2: in which the X-coordinate is the concentration of CH-j/BA-j concentration (μM), and Y-coordinate is the intracellular levels of H2O2 (μM) for 4 h with PF1-H2O2 10 μM by Fluorescence Microplater Reader (488 nm/525 nm).

plasma proteins = test: Protein binding rate and reversible binding rate; assay type: in vitro ADME
Experimental: (§2) The combination of drugs and plasma proteins is usually reversible, and the affinity strength is determined by the reversible binding rate of the drug-protein complex. Only free drugs can spread to the tissue through the lipid membrane. By modifying the structure of the drug, the effect of the drug on the target site can be improved by improving the reversible binding rate of the drug-protein complex.
(§3) The acidic part of polyphenol hydroxyl group is combined with lysine alkaline site in albumin structure. The protein binding rate and reversible binding rate of CH-j see TABLE 2.

[3] = Protein binding rate and reversible binding rate; assay type: in vitro ADME; settings: plasma proteins
Experimental: as §2, §3

Hep G2 = test: Anti-cancer cells proliferation activity (MTT, 48 h); assay type: cell-based; settings: Homo sapiens, HepG2
Text: as §1

MCF-7 = test: as above; assay type: cell-based; settings: Homo sapiens, MCF7, MCF-7, MTT
Text: as §1

H-460 = test: as above; assay type: cell-based; settings: Homo sapiens, NCI-H460, H-460, MTT
Text: as §1

PC-3 = test: as above; assay type: cell-based; settings: Homo sapiens, PC-3, MTT
Text: as §1

Dissolution in pH media = assay type: physicochemical; settings: 37° C.
Experimental: CH-j is pKa 5.3, log P 1.63 in Octanol/Water at 37° C. […] (BA-j 77m/ml). CH-j belongs to BCS II (low solubility, high permeability) and solubility presents the pH dependence. […] CH-j is a pH dependent fast release. […] It is speculated that CH-j has more appropriate log P and solubility with more likely entering tissue cells than others solubility acetyl Chrysin Mannich base derivatives.

H-460 xenograft = H-460 xenograft in BALB/c nude mouse; assay type: in vivo; settings: compared with before
Experimental: The anti-tumor effect of the BALB/c nude mouse model of the non-small cell lung cancer (H-460) was determined by the method [Scientific Reports, 2015, 5: 13626], and the results were shown in FIG. 7. 5 or 10 mg/kg of CH-j, for twice daily 10 days were compared with the control group.
FIG. 7: H-460 carcinoma in male BALB/c nude mice xenograft model, two times a day to fill the stomach to CH-j 5 and 10 mg/kg, for 10 days in a row, X-coordinate is experimental time (days), and Y-coordinate vertical volume of H-460 carcinoma (mm^3).

IC50 [1]: 2.6 µg/mL | IC50 ([1]; MTT, 48 h): 6.3 µM | AUC(0-inf) [2]: 20.4 µM·h | Reversie binding rate AV (plasma proteins; average of 3 concentrations): 90.0% | Reversie binding rate (plasma proteins; drug concentration 12.5 μg/ml): 90.3% | Reversie binding rate (plasma proteins; drug concentration 25 μg/ml): 89.6% | Reversie binding rate (plasma proteins; drug concentration 50 μg/ml): 90.1% | fraction unbound ([3]; average of 3 concentrations, read-out: Protein binding rate AV (converted)): 0.14 | fraction unbound at 12.5 μg/ml ([3]; drug concentration 12.5 μg/ml): 0.114 | fraction unbound at 25 μg/ml ([3]; drug concentration 25 μg/ml): 0.156 | fraction unbound at 50 μg/ml ([3]; drug concentration 50 μg/ml): 0.151 | IC50 (Hep G2): 6 ± 1.5 µM | IC50 (MCF-7): 5.7 ± 1.24 µM | IC50 (H-460): 6.5 ± 1.13 µM | IC50 (PC-3): 6.2 ± 1.16 µM | Dissolution (Dissolution in pH media; 0.05M NaAC-HAC buffered solution (pH4.5)): 90% | Dissolution (Dissolution in pH media; 0.1M HCl (pH1.2)): 62% | Dissolution (Dissolution in pH media; PBS (pH6.8)): < 1.0% | Dissolution (Dissolution in pH media; water): < 0.1%
Compound: CC(=O)c1c(O)c(CN2CCC(O)CC2)c2oc(-c3ccccc3)cc(=O)c2c1O [CH-j, 6-Acetyl-5,7-dihydroxy-8-(4-hydroxy-piperidin-1-ylmethyl)-2-phenyl-chromen-4-one]
Anti-proliferative activity, times stronger than BA-j [1]: 2 times | Anti-proliferative activity, times stronger than Chrysin [1]: 5 times | Amount of H2O2 released, fold (BGC-823 and Hep G2): about 4 times | Maximum level of H2O2 in cells (BGC-823 and Hep G2; 4 h): 35 to 45 µM | Reduction rate of H-460 tumor (H-460 xenograft; 5 mg/kg twice daily 10 days): 90.5%±9.2% | Reduction rate of H-460 tumor (H-460 xenograft; 10 mg/kg twice daily 10 days): 95.2%±11.6%
